Legend:
Assay type in all cases: functional
[1] = test system: SNB-75; assay: Cytotoxicity against human SNB75 cells assessed as cell growth at 10^-6 M after 48 hrs by SRB assay relative to control; conditions: SNB-75, 48 h, read-out: Activity
[2] = test system: HL-60(TB); assay: Cytotoxicity against human HL-60(TB) cells assessed as cell growth at 10^-6 M after 48 hrs by SRB assay relative to control; conditions: HL-60, 48 h, read-out: Activity
[3] = test system: MOLT-4; assay: Cytotoxicity against human MOLT4 cells assessed as cell growth at 10^-8 M after 48 hrs by SRB assay relative to control; conditions: MOLT-4, 48 h, read-out: Activity
[4] = test system: NCI-H460; assay: Cytotoxicity against human NCI-H460 cells assessed as cell growth at 10^-6 M after 48 hrs by SRB assay relative to control; conditions: NCI-H460, 48 h, read-out: Activity
[5] = test system: MOLT-4; assay: Cytotoxicity against human MOLT4 cells assessed as cell growth at 10^-7 M after 48 hrs by SRB assay relative to control; conditions: MOLT-4, 48 h, read-out: Activity
[6] = Cytotoxicity against human OVCAR4 cells after 48 hrs by SRB assay; conditions: OVCAR-4, 48 h
[7] = test system: IGROV-1; assay: Cytotoxicity against human IGROV1 cells assessed as cell growth at 10^-8 M after 48 hrs by SRB assay relative to control; conditions: IGROV-1, 48 h, read-out: Activity
[8] = test system: A498; assay: Cytotoxicity against human A498 cells assessed as cell growth at 10^-8 M after 48 hrs by SRB assay relative to control; conditions: A498, 48 h, read-out: Activity
[9] = test system: NCI-H460; assay: Cytotoxicity against human NCI-H460 cells assessed as cell growth at 10^-8 M after 48 hrs by SRB assay relative to control; conditions: NCI-H460, 48 h, read-out: Activity
[10] = test system: SK-MEL-28; assay: Cytotoxicity against human SK-MEL-28 cells assessed as cell growth at 10^-8 M after 48 hrs by SRB assay relative to control; conditions: SK-MEL-28, 48 h, read-out: Activity
[11] = test system: SF-268; assay: Cytotoxicity against human SF268 cells assessed as cell growth at 10^-4 M after 48 hrs by SRB assay relative to control; conditions: SF-268, 48 h, read-out: Activity
[12] = test system: LOX IMVI; assay: Cytotoxicity against human LOXIMVI cells assessed as cell growth at 10^-4 M after 48 hrs by SRB assay relative to control; conditions: read-out: Activity
[13] = test system: COLO 205; assay: Cytotoxicity against human COLO205 cells assessed as cell growth at 10^-4 M after 48 hrs by SRB assay relative to control; conditions: COLO 205, 48 h, read-out: Activity
[14] = test system: Malme-3M; assay: Cytotoxicity against human MALME-3M cells assessed as cell growth at 10^-6 M after 48 hrs by SRB assay relative to control; conditions: read-out: Activity
[15] = test system: SF-268; assay: Cytotoxicity against human SF268 cells assessed as cell growth at 10^-6 M after 48 hrs by SRB assay relative to control; conditions: SF-268, 48 h, read-out: Activity
[16] = Cytotoxicity against human OVCAR5 cells assessed as cell growth at 10^-8 M after 48 hrs by SRB assay relative to control; conditions: OVCAR-5, 48 h, read-out: Activity
[17] = test system: SNB-75; assay: Cytotoxicity against human SNB75 cells assessed as cell growth at 10^-4 M after 48 hrs by SRB assay relative to control; conditions: SNB-75, 48 h, read-out: Activity
[18] = test system: SN12C; assay: Cytotoxicity against human SN12C cells assessed as cell growth at 10^-6 M after 48 hrs by SRB assay relative to control; conditions: read-out: Activity
[19] = Cytotoxicity against human EKVX cells assessed as cell growth at 10^-6 M after 48 hrs by SRB assay relative to control; conditions: read-out: Activity
[20] = test system: SF-539; assay: Cytotoxicity against human SF539 cells assessed as cell growth at 10^-7 M after 48 hrs by SRB assay relative to control; conditions: SF-539, 48 h, read-out: Activity
[21] = test system: MCF7; assay: Cytotoxicity against human MCF7 cells assessed as cell growth at 10^-7 M after 48 hrs by SRB assay relative to control; conditions: MCF7, 48 h, read-out: Activity
[22] = test system: U-251; assay: Cytotoxicity against human U251 cells assessed as cell growth at 10^-4 M after 48 hrs by SRB assay relative to control; conditions: U-251, 48 h, read-out: Activity
[23] = Cytotoxicity against human EKVX cells assessed as cell growth at 10^-8 M after 48 hrs by SRB assay relative to control; conditions: read-out: Activity
[24] = test system: KM12; assay: Cytotoxicity against human KM12 cells assessed as cell growth at 10^-7 M after 48 hrs by SRB assay relative to control; conditions: KM12, 48 h, read-out: Activity
[25] = Cytotoxicity against human OVCAR3 cells assessed as cell growth at 10^-4 M after 48 hrs by SRB assay relative to control; conditions: OVCAR-3, 48 h, read-out: Activity
[26] = test system: T47D; assay: Cytotoxicity against human T47D cells assessed as cell growth at 10^-8 M after 48 hrs by SRB assay relative to control; conditions: read-out: Activity
[27] = test system: NCI-H23; assay: Cytotoxicity against human NCI-H23 cells assessed as cell growth at 10^-6 M after 48 hrs by SRB assay relative to control; conditions: NCI-H23, 48 h, read-out: Activity
[28] = test system: NCI-H226; assay: Cytotoxicity against human NCI-H226 cells assessed as cell growth at 10^-8 M after 48 hrs by SRB assay relative to control; conditions: NCI-H226, 48 h, read-out: Activity
[29] = test system: HL-60(TB); assay: Cytotoxicity against human HL-60(TB) cells after 48 hrs by SRB assay; conditions: HL-60, 48 h; for CC50: read-out: LC50 (the source's name)
[30] = test system: KM12; assay: Cytotoxicity against human KM12 cells after 48 hrs by SRB assay; conditions: KM12, 48 h; for CC50: read-out: LC50 (the source's name)
[31] = test system: MOLT-4; assay: Cytotoxicity against human MOLT4 cells after 48 hrs by SRB assay; conditions: MOLT-4, 48 h
[32] = test system: HT-29; assay: Cytotoxicity against human HT-29 cells assessed as cell growth at 10^-8 M after 48 hrs by SRB assay relative to control; conditions: HT-29, 48 h, read-out: Activity
[33] = test system: SF-539; assay: Cytotoxicity against human SF539 cells assessed as cell growth at 10^-4 M after 48 hrs by SRB assay relative to control; conditions: SF-539, 48 h, read-out: Activity
[34] = test system: CAKI-1; assay: Cytotoxicity against human Caki1 cells assessed as cell growth at 10^-8 M after 48 hrs by SRB assay relative to control; conditions: CAKI-1, 48 h, read-out: Activity
[35] = test system: K562; assay: Cytotoxicity against human K562 cells assessed as cell growth at 10^-6 M after 48 hrs by SRB assay relative to control; conditions: K562, 48 h, read-out: Activity
[36] = test system: HL-60(TB); assay: Cytotoxicity against human HL-60(TB) cells assessed as cell growth at 10^-8 M after 48 hrs by SRB assay relative to control; conditions: HL-60, 48 h, read-out: Activity
[37] = test system: HCC 2998; assay: Cytotoxicity against human HCC2998 cells after 48 hrs by SRB assay; conditions: HCC 2998, 48 h; for CC50: read-out: LC50 (the source's name)

Compound: COc1ccc(CCN2COc3c([C@@H](C)CCC=C(C)C)ccc(C)c3C2)cc1OC
- growth at 1 µM [1]: 86%
- growth at 1 µM [2]: 100%
- growth at 0.01 µM [3]: 90%
- growth at 1 µM [4]: 99%
- growth at 0.1 µM [5]: 89%
- GI50 [6]: 2.89 µM
- LC50 [6]: > 100 µM
- TGI [6]: 16 µM
- growth at 0.01 µM [7]: 119%
- growth at 0.01 µM [8]: 67%
- growth at 0.01 µM [9]: 101%
- growth at 0.01 µM [10]: 106%
- growth at 100 µM [11]: -88%
- growth at 100 µM [12]: -93%
- growth at 100 µM [13]: -100%
- growth at 1 µM [14]: 79%
- growth at 1 µM [15]: 67%
- growth at 0.01 µM [16]: 92%
- growth at 100 µM [17]: -50%
- growth at 1 µM [18]: 87%
- growth at 1 µM [19]: 91%
- growth at 0.1 µM [20]: 88%
- growth at 0.1 µM [21]: 90%
- growth at 100 µM [22]: -100%
- growth at 0.01 µM [23]: 93%
- growth at 0.1 µM [24]: 96%
- growth at 100 µM [25]: -94%
- growth at 0.01 µM [26]: 88%
- growth at 1 µM [27]: 104%
- growth at 0.01 µM [28]: 90%
- GI50 [29]: 4.11 µM
- TGI [29]: 60.9 µM
- CC50 [29]: > 100 µM
- GI50 [30]: 2.86 µM
- TGI [30]: 9.64 µM
- CC50 [30]: 46.1 µM
- GI50 [31]: 3.69 µM
- LC50 [31]: > 100 µM
- TGI [31]: > 100 µM
- growth at 0.01 µM [32]: 97%
- growth at 100 µM [33]: -100%
- growth at 0.01 µM [34]: 94%
- growth at 1 µM [35]: 98%
- growth at 0.01 µM [36]: 98%
- GI50 [37]: 1.59 µM
- TGI [37]: 2.96 µM
- CC50 [37]: 5.49 µM

Compound: CC(C)=CCC[C@H](C)c1ccc(C)c(CNCC2CCNCC2)c1O
- growth at 1 µM [1]: 89%
- growth at 1 µM [2]: 88%
- growth at 0.01 µM [3]: 107%
- growth at 1 µM [4]: 102%
- growth at 0.1 µM [5]: 96%
- GI50 [6]: 18.2 µM
- LC50 [6]: > 25 µM
- TGI [6]: > 25 µM
- growth at 0.01 µM [7]: 102%
- growth at 0.01 µM [8]: 80%
- growth at 0.01 µM [9]: 101%
- growth at 0.01 µM [10]: 102%
- growth at 100 µM [11]: 14%
- growth at 100 µM [12]: -79%
- growth at 100 µM [13]: -93%
- growth at 1 µM [14]: 84%
- growth at 1 µM [15]: 92%
- growth at 0.01 µM [16]: 96%
- growth at 100 µM [17]: -32%
- growth at 1 µM [18]: 93%
- growth at 1 µM [19]: 92%
- growth at 0.1 µM [20]: 91%
- growth at 0.1 µM [21]: 97%
- growth at 100 µM [22]: -81%
- growth at 0.01 µM [23]: 99%
- growth at 0.1 µM [24]: 97%
- growth at 100 µM [25]: 3%
- growth at 0.01 µM [26]: 101%
- growth at 1 µM [27]: 94%
- growth at 0.01 µM [28]: 98%
- GI50 [29]: 5.02 µM
- TGI [29]: 10.2 µM
- CC50 [29]: 20.7 µM
- GI50 [30]: 4.12 µM
- TGI [30]: 8.38 µM
- CC50 [30]: 17.1 µM
- LC50 [31]: > 25 µM
- growth at 0.01 µM [32]: 108%
- growth at 100 µM [33]: -77%
- growth at 0.01 µM [34]: 92%
- growth at 1 µM [35]: 91%
- growth at 0.01 µM [36]: 86%
- GI50 [37]: 4.13 µM
- TGI [37]: 7.73 µM
- CC50 [37]: 14.4 µM

Compound: CC(C)=CCC[C@H](C)c1ccc(C)c2c1OCN(CC1CCNCC1)C2
- growth at 1 µM [1]: 85%
- growth at 1 µM [2]: 82%
- growth at 0.01 µM [3]: 106%
- growth at 1 µM [4]: 113%
- growth at 0.1 µM [5]: 104%
- GI50 [6]: 16 µM
- LC50 [6]: 58.9 µM
- TGI [6]: 30.7 µM
- growth at 0.01 µM [7]: 101%
- growth at 0.01 µM [8]: 78%
- growth at 0.01 µM [9]: 108%
- growth at 0.01 µM [10]: 107%
- growth at 100 µM [11]: -79%
- growth at 100 µM [12]: -80%
- growth at 100 µM [13]: -89%
- growth at 1 µM [14]: 95%
- growth at 1 µM [15]: 102%
- growth at 0.01 µM [16]: 88%
- growth at 100 µM [17]: -99%
- growth at 1 µM [18]: 102%
- growth at 1 µM [19]: 94%
- growth at 0.1 µM [20]: 94%
- growth at 0.1 µM [21]: 97%
- growth at 100 µM [22]: -87%
- growth at 0.01 µM [23]: 104%
- growth at 0.1 µM [24]: 99%
- growth at 100 µM [25]: -84%
- growth at 0.01 µM [26]: 95%
- growth at 1 µM [27]: 105%
- growth at 0.01 µM [28]: 86%
- GI50 [29]: 3.9 µM
- TGI [29]: 18.9 µM
- CC50 [29]: 59.3 µM
- GI50 [30]: 12.3 µM
- TGI [30]: 26 µM
- CC50 [30]: 55 µM
- GI50 [31]: 14.6 µM
- LC50 [31]: > 100 µM
- TGI [31]: 43.3 µM
- growth at 0.01 µM [32]: 102%
- growth at 100 µM [33]: -93%
- growth at 0.01 µM [34]: 101%
- growth at 1 µM [35]: 93%
- growth at 0.01 µM [36]: 96%
- GI50 [37]: 3.74 µM
- TGI [37]: 12.3 µM
- CC50 [37]: 37.5 µM

Source: ChEMBL document CHEMBL3390836, “Mannich- and LedererManasse-based analogues of the natural product S-(+)-curcuphenol as cancer proliferation and migration inhibitors” (Medchemcomm, 2012)
